# Assay results: the supplement of paper PMC8372320
# Test: photocatalytic hydrogen evolution rate (per 5 mg catalyst); higher = more photocatalytic H2 evolution; extreme values may be limits of the assay
# Settings: catalyst mass (mg): 5; Pt cocatalyst (wt%): 3; sacrificial medium: triethylamine/methanol/water 1:1:1
# 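Note: aromatic molecules in triethylamine/methanol/water with Pt photoreduced in situ, irradiated 3 h under a 1 sun AM 1.5G solar simulator (350–1000 nm), H2 quantified by headspace gas chromatography; listed molecule itself used as the photocatalyst at 5 mg per vial.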
row,SMILES,photocatalytic hydrogen evolution rate [µmol/h]
1,Brc1ccc(-c2nc(-c3ccc(Br)cc3)nc(-c3ccc(Br)cc3)n2)cc1,0.0311
2,Brc1c2ccccc2c(-c2c3ccccc3c(Br)c3ccccc23)c2ccccc12,1.44
3,O=Cc1cc(Br)cc(Br)c1,0.234
4,O=C1OC2(c3ccccc31)c1cc(I)c(O)c(I)c1Oc1c2cc(I)c(O)c1I,28.3
5,Nc1cc(Br)c(Br)cc1N,0
6,c1cc2ccc3cccc4ccc(c1)c2c34,0.198
7,N#CC(C#N)=c1ccc(=C(C#N)C#N)cc1,0
8,C#Cc1ccc(C=O)cc1,0
9,c1ccc2c(c1)cc1ccc3cccc4ccc2c1c34,0.00851
10,N#Cc1ccc(C#N)nc1,0.0617
11,Brc1ccc(N(c2ccc(Br)cc2)c2ccc(Br)cc2)cc1,0.922
12,COC(=O)c1nc(N)c(Br)cc1Br,0
13,Fc1c(F)c(F)c(-c2c(F)c(F)c(F)c(F)c2F)c(F)c1F,0
14,N#Cc1ccc(-c2ccccc2)cc1,0
15,N#CCc1ccc(C#N)cc1,0
16,OB(O)c1ccc(B(O)O)cc1,0.053
17,CCc1cc(C#N)ccc1C#N,0
18,N#CCc1ccc(B(O)O)cc1,0
19,Cn1cc(Br)nc(Br)c1=O,0
20,N#Cc1c(F)c(F)c(F)c(C#N)c1F,0.386
21,OC(c1ccccc1)c1ccccc1,0
22,N#Cc1cc(C#N)c(C#N)cc1C#N,0
23,c1ccc(N=Nc2ccccc2)cc1,0
24,N#Cc1c(F)c(F)nc(F)c1F,0.00201
25,Brc1cncc(Br)c1,0
26,O=C(O)c1c(F)c(F)c(C(=O)O)c(F)c1F,0
27,Brc1c2c(c(Br)c3nsnc13)N=S=N2,0

row,SMILES,photocatalytic hydrogen evolution rate [µmol/h]
1,N#Cc1cc(F)c(F)c(F)c1F,0
2,Brc1cc(Br)c2[nH]c3c(Br)cc(Br)cc3c2c1,0.128
3,Brc1ccc(I)cc1,0
4,N#Cc1cccnc1C#N,0
5,Brc1ccc(-c2ccc(-c3ccc(Br)s3)s2)s1,0
6,Brc1ccc(OCC2CCCCO2)c(Br)c1 (stereo not drawn),0
7,Nc1c(Br)ccc(Br)c1N,0
8,N#Cc1cc(N)c(N)cc1C#N,0
9,c1ccc(-c2nc(-c3ccccc3)nc(-c3ccccc3)n2)cc1,0.0789
10,N#Cc1nc2c3nc(C#N)c(C#N)nc3c3nc(C#N)c(C#N)nc3c2nc1C#N,0
11,C#Cc1ccccc1C#N,0
12,CC1(C)OB(c2c3ccccc3c(B3OC(C)(C)C(C)(C)O3)c3ccccc23)OC1(C)C,0
13,O=Cc1ccc(C=O)c([N+](=O)[O-])c1,0
14,Brc1c(Br)c(Br)c(Br)c(Br)c1Br,0
15,N#Cc1c2ccccc2c(C#N)c2ccccc12,0.0714
16,O=Cc1ccc(-n2c3ccccc3c3ccccc32)cc1,3.93
17,O=Cc1ccc(Br)c(Cl)c1,1.45
18,Nc1cc(C(=O)O)cc(C(=O)O)c1,0
19,N#Cc1c(F)cc(F)cc1F,0.0527
20,O=C(O)C(c1ccccc1)(c1ccccc1)c1ccccc1,0
21,C=CS(=O)(=O)c1ccccc1,0
22,O=C1c2cccc(O)c2C(=O)c2cccc(O)c21,0
23,N#CCc1cccc(CC#N)c1,0
24,N#Cc1cc(C#N)cc(C#N)c1,0.00175
25,Cc1cc(Br)cc(Br)c1,0
26,BrCc1cc(Br)cc(Br)c1,0
27,O=Cc1cc(O)cc(Cl)c1,0.000189

row,SMILES,photocatalytic hydrogen evolution rate [µmol/h]
1,Cc1cc2c(cc1N)S(=O)(=O)c1cc(N)c(C)cc1-2,0
2,Cc1cnc(C#N)c(C#N)n1,0
3,N#CC(C#N)=c1cc(F)c(=C(C#N)C#N)cc1F,0
4,CCN1C(=O)C(=O)c2cc(Br)cc(Br)c21,0.105
5,O=Cc1cc(F)cc(Br)c1,0.0795
6,O=Cc1cc(Br)nc(Br)c1,0.107
7,O=Cc1ccc(Cl)cc1,0.964
8,Cc1ncc[nH]1,0
9,Oc1cccc2cccnc12,0
10,Brc1sc(Br)c(Br)c1Br,0
11,Brc1cc(Br)c(Br)cc1Br,0
12,Cc1ccc(C)c(N=Nc2cc(C)c(N=Nc3c(O)ccc4ccccc34)cc2C)c1,0
13,O=C1OC(=O)c2ccc3c4ccc5c6c(ccc(c7ccc1c2c73)c64)C(=O)OC5=O,0
14,Cc1c(CBr)c(C)c(CBr)c(C)c1CBr,0
15,C1=Cc2cccc3cccc1c23,0
16,COc1ccc(C=O)cc1O,0
17,O=C1c2ccccc2-c2ccc3c4ccc5c6c(ccc(c7ccc1c2c73)c64)C(=O)c1ccccc1-5,0.407
18,O=C(O)c1ccc(-c2cc(-c3ccc(C(=O)O)cc3)c(-c3ccc(C(=O)O)cc3)cc2-c2ccc(C(=O)O)cc2)cc1,0.052
19,Brc1ccc2ccccc2c1,0.0179
20,N#Cc1cc(C#N)ncn1,0
21,C1=CSC(=C2SC=CS2)S1,0
22,N#Cc1c(F)c(F)c(F)c(F)c1F,0.0353
23,O=C1Nc2c(Br)cc(Br)cc2C1=O,0.874
24,O=c1c2ccccc2c(=O)c2cc3c(=O)c4ccccc4c(=O)c3cc12,0
25,c1ccc2cc3cc4ccccc4cc3cc2c1,0.162

# The next lines start with the values.
row,photocatalytic hydrogen evolution rate [µmol/h],SMILES
1,0,O=C1c2cccc3cccc(c23)C(=O)N1O
2,3.14,O=Cc1cccc(-c2ccccc2)c1
3,0,COC(=O)/C=C/c1ccccc1
4,0,N#Cc1ccc(Br)cn1
5,0.491,O=Cc1ccccc1C=O
6,0.006,Nc1ccc2c(c1)C(=O)c1ccc(N)cc1C2=O
7,0,c1cc(-c2nc(-c3ccncc3)nc(-c3ccncc3)n2)ccn1
8,0.015,N#Cc1c[nH]c2ccc(Br)cc12
9,0,O=C(O)C1CCN(C(=O)c2ccccc2)CC1
10,0,c1ccc2nsnc2c1
11,0.0514,Brc1cc(Br)cc(-c2cc(Br)cc(Br)c2)c1
12,0,O=[N+]([O-])c1cc(Br)ccc1Br
13,23.9,O=C1OC2(c3ccccc31)c1cc(Br)c(O)c(Br)c1Oc1c2cc(Br)c(O)c1Br
14,1.45,O=Cc1cccc2cccnc12
15,0.0348,COc1cc(Br)cc(OC)c1
16,0,O=C(c1ccc(O)cc1)c1ccc(O)cc1
17,0,N#Cc1cncc(-c2cncc(C#N)c2)c1
18,0.17,c1ccc(-c2cccc(-c3ccccn3)n2)nc1
19,0,COC(=O)c1ccc2cc(Br)ccc2c1
20,0.927,O=Cc1ccc(-c2ccc(C=O)cn2)nc1
21,0,c1ccc2cc3ccccc3cc2c1
22,2.58,O=Cc1ccc(-c2cncnc2)cc1
23,0.0242,Brc1ccc(-c2ccc(Br)cn2)nc1
24,1.37,COc1cc(C=O)c(OC)cc1C=O
25,0,c1cc(-c2ccncc2)ccn1

row,photocatalytic hydrogen evolution rate [µmol/h],SMILES
1,0,N#Cc1ccc(-c2ccc(C#N)cn2)nc1
2,5.1,O=Cc1ccc(-c2ccccn2)cc1
3,0,N#Cc1cccc(-c2ccc(N)cc2)c1
4,8.34,N#Cc1ccc(-c2ccc(C#N)c(O)c2)cc1
5,3.39,Cc1ccc(-c2ccc(C=O)cc2)cc1
6,0,N#Cc1ccc(-c2cccc(N)c2)cc1
7,0,O=C(O)c1cc(C(=O)O)cc(-c2cc(C(=O)O)cc(C(=O)O)c2)c1
8,7.48,O=c1c2ccccc2oc2ccccc12
9,0.168,c1cncc(-c2nc(-c3cccnc3)nc(-c3cccnc3)n2)c1
10,0,BrCc1ccc(-c2ccc(CBr)cc2)cc1
11,0.0108,N#CCc1ccc(-c2ccc(CC#N)cn2)nc1
12,10.5,O=Cc1cc(Br)ccc1O
13,1.91,COc1ccc2c3c(cccc13)C(=O)N(C)C2=O
14,0.169,COc1ccnc(-c2cc(OC)ccn2)c1
15,1.09,N#Cc1cccc(-c2cccc(C=O)c2)c1
16,0.0183,COc1cc(C=O)ccc1O
17,0.0076,Cc1cc(C=O)cc(C)c1O
18,0,Fc1cc(Br)c(F)cc1Br
19,0,Brc1ccc(C#Cc2ccc(Br)cc2)cc1
20,2.51,O=Cc1ccc2c(c1)c1ccccc1n2-c1ccccc1
21,0,Cc1cc(Br)c(C)cc1Br
22,0,Brc1ccc(Br)nc1
23,0,Nc1ccc(Br)cc1Br
24,0,NNC(=O)COc1ccc(Br)cc1Br
